The values that follow come from patent publication US11197477B2, “Aqueous capsule suspension concentrates based on 2-[(2,4-dichlorophenyl)methyl]-4,4′-dimethyl-3-isoxazolidinone” (priority 2016, dated 2021).

For series [1] the following is noted: cited from earlier work.
The nature of series [2]: Solubility of the active ingredient in Solvesso 200 ND. The following applies: at room temperature; at higher concentrations the active ingredient crystallizes out in the capsule. In kind it is physicochemical. An excerpt:
At higher concentrations, the active ingredient crystallizes out in the capsule.

Consider `CC1(C)CON(Cc2ccc(Cl)cc2Cl)C1=O` [DCPMI, 2-[(2,4-dichlorophenyl)methyl]-4,4′-dimethyl-3-isoxazolidinone], for which, in series [1], the water solubility is reported as 39.5 ppm. The “solubility of the active ingredient in Solvesso 200 ND” value in series [2] was 35 % by weight.

As to `CC1(C)CON(Cc2ccccc2Cl)C1=O` [clomazone, 2-(2-chlorobenzyl)-4,4-dimethyl-1,2-oxazolidin-3-one], in series [1], the water solubility was 1000 ppm.
